Measured values reported in patent publication US9463338B2, “Derivatives of the sinapinic acid” (PHARMASYNTHESE, priority 2013, dated 2016).
Values joined by “and” are separate entries in the source; they are usually repeats but may differ in a detail not shown here. Equal values may be shown once. Marks after values point to notes of the source that are not given here.

What was measured:
[1] = ORAC (Oxygen Radical Absorbance Capacity) antioxidant activity; type: biochemical; details: for antioxidant activity in comparison with trolox: ORAC
Excerpt: The ORAC (Oxygen Radical Absorbance Capacity) method, described in Cao, G., Alessio, H. M., Cutler, R. G. Free radical Biology & Medecine 1993, 14: 303-311<<Oxygen-Radical Absorbance Capacity assay for antioxydants>> and Benderitter, M., Vincent-Genid, L., Pouget, J. P., Voisin, P. Radiation Research 2003; 159 (4): 471-483 <<The cell membrane as a biosensor of oxydative stress induced by radiation exposure:multiparameter investigation>>, has been used for measuring the anti-oxidant capability of the compounds of the invention.
By convention, the ORAC antioxidant activity of any molecule is measured in comparison with a recognized reference which is an analog of vitamin E, the trolox (6-hydroxy-2,5,7,8-tetramethylchroman-2-carboxylic acid), the anti-oxidant capability of 1 μM (micro mole) of trolox corresponding to 1 ORAC unit.
The ORAC values are commonly reported in μmol TE/g (in micromole of Trolox Equivalent per gram of product to be tested).
Given these definitions, the trolox has an ORAC index of about 3995 units.
The ORAC values of the compounds 26 and 34 have been measured (average of 3 measurements).

[2] = system: normal human dermal fibroblasts; experiment: Production of type I pro-collagen in monolayer cultures of normal human dermal fibroblasts (E.I.A.); type: cell-based; details: 48 hours; for Procollagen Difference (%): vs DMSO
Method: (§1) The test system consists of monolayers of adult normal human dermal fibroblasts obtained by cultivating cells collected from a tummy tuck carried out on a person.
The used reference activator is the Transforming Growth Factor β (TGF-β) at 1 ng/ml. […]
(§2) The compound to be tested is solubilized in 1 mg/ml in DMSO, then diluted in the cells incubation medium, with a constant concentration of 0.1% (v/v) in DMSO.
Upon completion of the incubation period, the type I pro-collagen contained in the fibroblasts incubation media has been quantified using a sensitive and specific E.I.A. kit.
Upon completion of the incubation period, the proteins contained in the cellular lysates have been quantified by a spectrophotometric method (Bradford method—Bradford M. (1976) Anal. Biochem., 72, 248-254).
(§3) The statistical significance of the differences that have been observed between the <<Control>> and the <<reference product>> conditions, has been assessed through a Student test. The statistical significance of the differences that have been observed between the <<Check>> and the <<test products>> conditions, has been assessed through a one-way analysis of variance (One Way ANOVA) followed by a Holm-Sidak test (*:p<0.05).
The results are given in the form of μg of type I pro-collagen per mg of protein (average+/− the standard deviation, S.D.) and are reported in the following Table 5.

[3] = system: normal human dermal fibroblasts; experiment: Production of progerin in monolayer cultures of normal human dermal fibroblasts (ELISA); type: cell-based; details: for Progerin % DMSO / Progerin Average / Progerin, individual values / Progerin Difference (%): 96 hours; for Progerin Difference (%): vs DMSO; for neo synthesis of progerin: under the retained experimental conditions
Excerpt: In order to study the influence of the compounds of the invention on the concentration of progerin in the cells, the assay method described by C. Verdy, J.-E. Branka and N. Mekideche in <<Quantitative assessment of lactate and progerine production in normal human cutaneous cells during normal ageing: effect of an alaria esculenta extract>>, Int. J. Cosmetic Science, 2011, 1-5, has been used.
as §1
Insulin at 10 nM has been used as a reference product in this study. […]
as §2
Upon completion of the incubation period, on the one hand, the progerin has been quantified in the cellular lysates (obtained by ultrasonic action) through a sensitive and specific ELISA assay, and on the other hand, the proteins that are contained in the cellular lysates have been quantified by a spectrophotometric method (Bradford method—Bradford M. (1976) Anal. Biochem., 72, 248-254).
as §3

[4] = system: normal human dermal fibroblasts; experiment: Neo synthesis of elastin in monolayer cultures of normal human dermal fibroblasts; type: cell-based; details: 10 ng/ml, 96 hours
Method: as §1
The used reference activator is the ascorbic acid at 100 μg/ml.
The cells have been incubated for 96 hours in the absence (control) or in the presence of the reference product or of increasing concentrations of the active ingredient that is being tested (10 ng/ml; 100 ng/ml; 500 ng/ml).
as §2
Upon completion of the incubation period, the elastin contained in the incubation medium of the explants has been quantified by a spectrophotometric method.
Upon completion of the incubation period, the proteins contained in the cellular lysate have been quantified by a spectrophotometric method (Bradford method—Bradford M. (1976) Anal. Biochem., 72, 248-254).
The results are given in the form of μg of elastin per mg of protein (average+/− the standard deviation, S.D.).

[5] = system: explants of adipose tissues; experiment: Slimming effect: glycerol released in culture medium of adipose tissue explants; type: cell-based, human
Method: The activity of the compounds of the invention on the adipocytes has been assessed. To do so, tests have been carried out on explants of adipose tissues that are kept alive according to the following experimental protocol. The products to be tested are introduced in the culture medium. After 9 days of treatment, the activity is assessed through an assay of the glycerol released in the culture medium. In order to be able to compare the potential activity of the molecules, caffeine (Sigma ref C-0750 batch 127F0396), which is known for its activity on the adipocytes (Studlar M. […] The explants are prepared from a tummy tuck ([…]-AB-40) carried out on a donor. 54 explants of tissues have been prepared and kept alive in a medium which is supplemented with penicillin/streptomycin antibiotics (Gibco ref 15140 batch 918578) at 37° C. and with 5% of CO2. The treatment has been carried out, on 3 explants, by incorporating 100 μl of the product (which is in turn at a 2% concentration in the adequate solvent, DMSO) in 2 ml of the culture medium on days J0, J2, J3, J5 and J7. Caffeine has been diluted to the desired concentration in the culture medium on these same days. The control explants have undergone no treatment. On J0, the 3 explants have been collected and frozen at -80° C. On J9, the remaining explants have been collected and preserved under the same conditions. The extraction of lipids from the culture medium has been carried out according to a tested procedure. The assay of the glycerol of the culture medium has been carried out using a glycerol assay kit (Megazyme, K-GROL) in the form of 96-well microplates and reading has been made at 340 nm with a Tecam Infinite M200 microplate reader associated to the Magellan software.

Structure (SMILES): Cc1c(C)c2c(c(C)c1O)CCC(C)(C(=O)O)O2 (stereo not shown) [Trolox, 6-hydroxy-2,5,7,8-tetramethylchroman-2-carboxylic acid, reference compound]
- ORAC index ([1]; reference, given the definitions): about 3995 units
- ORAC Antioxidant activity ([1]; reference, value follows from the definition of the ORAC unit): 3995 μmol TE/g

Structure (SMILES): COc1cc(/C=C/C(=O)NC2CC2)cc(OC)c1OC(C)=O [Compound 34]
- antioxidant activity in comparison with trolox [1]: 5 times

Structure (SMILES): COc1cc(/C=C/C(=O)NCCc2ccc(O)cc2)cc(OC)c1OC(C)=O [Compound 36, 4-acetoxy-3,5-dimethoxy-N-(4′-hydroxyphenylethyl)-cinnamamide]
- Procollagen % DMSO ([2]; 50 ng/ml): 121.5%
- Procollagen Average ([2]; 50 ng/ml): 63.7* pg/mg of protein
- Procollagen, individual values ([2]; 50 ng/ml): 68.1 pg/mg of protein and 57.8 pg/mg of protein and 65.3 pg/mg of protein
- Procollagen Difference (%) ([2]; 50 ng/ml): 21.5%
- Procollagen % DMSO ([2]; 500 ng/ml): 121.8%
- Procollagen Average ([2]; 500 ng/ml): 63.9* pg/mg of protein
- Procollagen, individual values ([2]; 500 ng/ml): 59.2 pg/mg of protein and 65.1 pg/mg of protein and 67.2 pg/mg of protein
- Procollagen Difference (%) ([2]; 500 ng/ml): 21.8%
- Procollagen % DMSO ([2]; 5000 ng/ml): 129.0%
- Procollagen Average ([2]; 5000 ng/ml): 67.7* pg/mg of protein
- Procollagen, individual values ([2]; 5000 ng/ml): 73.8 pg/mg of protein and 64.8 pg/mg of protein and 64.4 pg/mg of protein
- Procollagen Difference (%) ([2]; 5000 ng/ml): 29.0%
- Progerin % DMSO ([3]; 50 ng/ml): 84.0%
- Progerin Average ([3]; 50 ng/ml): 932.6 ng/mg of protein
- Progerin, individual values ([3]; 50 ng/ml): 1552.2 ng/mg of protein and 690.1 ng/mg of protein and 555.6 ng/mg of protein
- Progerin Difference (%) ([3]; 50 ng/ml): −16.0%
- Progerin % DMSO ([3]; 500 ng/ml): 23.7%
- Progerin Average ([3]; 500 ng/ml): 263.6* ng/mg of protein
- Progerin, individual values ([3]; 500 ng/ml): 249.8 ng/mg of protein and 288.8 ng/mg of protein and 252.1 ng/mg of protein
- Progerin Difference (%) ([3]; 500 ng/ml): −76.3%
- Progerin % DMSO ([3]; 5000 ng/ml): 18.8%
- Progerin Average ([3]; 5000 ng/ml): 208.2* ng/mg of protein
- Progerin, individual values ([3]; 5000 ng/ml): 215.8 ng/mg of protein and 200.8 ng/mg of protein and 207.9 ng/mg of protein
- Progerin Difference (%) ([3]; 5000 ng/ml): −81.2%
- neo synthesis of progerin [3]: significantly decrease
- melting point: 99 °C
- increase of the neo synthesis of elastin [4]: +63.7%

Structure (SMILES): COc1cc(/C=C/C(=O)Oc2cc(C)ccc2C(C)C)cc(OC)c1OC(C)=O [Compound 8, 4-acetoxy-3,5-dimethoxy cinnamate of 2-isopropyl-5-methyl phenyl]
- melting point: 143 °C

Structure (SMILES): COc1cc(/C=C/C(=O)NCC(O)c2ccc(O)cc2)cc(OC)c1OC(C)=O (stereo not shown) [Compound 39]
- ORAC Antioxidant activity ([1]; average of 3 measurements): 20968 ± 992 μmol TE/g

Structure (SMILES): CCCCCCCCCCCCCCCCNC(=O)/C=C/c1cc(OC)c(OC(C)=O)c(OC)c1 [Compound 22]
- Progerin % DMSO ([3]; 10 ng/ml): 75.4%
- Progerin Average ([3]; 10 ng/ml): 837.7 ng/mg of protein
- Progerin, individual values ([3]; 10 ng/ml): 880.7 ng/mg of protein and 801.5 ng/mg of protein and 830.7 ng/mg of protein
- Progerin Difference (%) ([3]; 10 ng/ml): −24.6%
- Progerin % DMSO ([3]; 100 ng/ml): 52.9%
- Progerin Average ([3]; 100 ng/ml): 586.9* ng/mg of protein
- Progerin, individual values ([3]; 100 ng/ml): 711.0 ng/mg of protein and 548.8 ng/mg of protein and 500.9 ng/mg of protein
- Progerin Difference (%) ([3]; 100 ng/ml): −47.1%
- Progerin % DMSO ([3]; 500 ng/ml): 67.8%
- Progerin Average ([3]; 500 ng/ml): 752.5 ng/mg of protein
- Progerin, individual values ([3]; 500 ng/ml): 967.8 ng/mg of protein and 727.4 ng/mg of protein and 562.4 ng/mg of protein
- Progerin Difference (%) ([3]; 500 ng/ml): −32.2%
- neo synthesis of progerin [3]: significantly decrease
- increase of the neo synthesis of elastin [4]: +16.7%
- Glycerol % in comparison with caffeine ([5]; after 9 days of treatment): 124%
- slimming action higher than that of caffeine ([5]; after 9 days of treatment): 24%
- slimming activity in comparison with caffeine ([5]; after 9 days of treatment): enhanced slimming activity
- Glycerol Average ([5]; glycerol released in culture medium after 9 days, 100 μl of 2% product in DMSO in 2 ml medium on J0, J2, J3, J5, J7, 3 explants): 0.114 mg/mL

Structure (SMILES): COc1cc(/C=C/C(=O)OCCc2ccc(OC(C)=O)cc2)cc(OC)c1OC(C)=O [Compound 1, 4-acetoxy-3,5-dimethoxy cinnamate of 2-(4-acetoxyphenyl)-ethyl]
- melting point: 132 °C

Structure (SMILES): COc1cc(/C=C/C(=O)NCCCc2ccccc2)cc(OC)c1OC(C)=O [Compound 26, 4-acetoxy-3,5-dimethoxy-N-(3-phenylpropyl)-cinnamamide]
- antioxidant activity in comparison with trolox [1]: slightly higher
- melting point: 132 °C

Structure (SMILES): COc1ccc2[nH]cc(CCNC(=O)/C=C/c3cc(OC)c(OC(C)=O)c(OC)c3)c2c1 [Compound 31, 4-acetoxy-3,5-dimethoxy-N-(5-methoxytryptamyl)-cinnamamide]
- ORAC Antioxidant activity ([1]; average of 3 measurements): 4874 ± 216 μmol TE/g
- melting point: 148 °C
